Measured values published in publication PMC9421655, “Novel Antagonist of the Type 2 Lysophosphatidic Acid Receptor (LPA2), UCM-14216, Ameliorates Spinal Cord Injury in Mice” (Journal of Medicinal Chemistry, 2022).
Entries after “also recorded” stand apart in the source; their conditions may differ.

Columns and labels:
[1] = Parallel artificial membrane permeability assay (PAMPA); assay type: in vitro ADME; settings: pH 7.4, PAMPA, PBS pH 7.4, 5 h, rt, read-out: P (cm/s), permeability value
Experimental: These studies were carried out as previously described with minor modifications.[41],[42] The assessment of the membrane permeability of synthesized compounds and propranolol and metoprolol as reference compounds was performed in a commercially available 96-well Corning Gentest precoated PAMPA plate system (Cultek S.L.U., Spain). Prior to use, the precoated PAMPA plate system was warmed to rt for 30 min and 300 μL of 200 μM solution of tested compound in 2% DMSO in PBS (pH 7.4) were added into wells in the receiver (donor) plate. Then, 200 μL of PBS were added into wells in the filter (acceptor) plate. The filter plate was placed on the receiver plate by slowly lowering the precoated PAMPA plate until it sits on the receiver plate. The assembly was incubated at rt for 5 h, and then buffer samples were collected carefully from each plate. The final concentrations of compound in both donor and acceptor wells were analyzed by HPLC-MS and quantification was estimated by using the peak area integration normalized with an internal standard. Permeability value of the compounds was calculated using the following formula: P (cm/s) = {−ln[1 – CA(t)/Ceq]}/[A(1/VD + 1/VA)t], where A = filter area (0.3 cm^2), VD = donor well volume (0.3 mL), VA = acceptor well volume (0.2 mL), t = incubation time (s), CA(t) = compound concentration (μM) in the acceptor well at time t, CD(t) = compound concentration (μM) in donor well at time t, and Ceq = [CD(t)VD + CA(t)VA]/(VD + VA). Assays were performed in duplicate, and the compound was tested in two different plates on different days.

LPA5 = LPA5 (Homo sapiens, UniProt Q9H1C0); settings: in abstract
Chain of LPA5 (Q9H1C0 whole entry, species assumed): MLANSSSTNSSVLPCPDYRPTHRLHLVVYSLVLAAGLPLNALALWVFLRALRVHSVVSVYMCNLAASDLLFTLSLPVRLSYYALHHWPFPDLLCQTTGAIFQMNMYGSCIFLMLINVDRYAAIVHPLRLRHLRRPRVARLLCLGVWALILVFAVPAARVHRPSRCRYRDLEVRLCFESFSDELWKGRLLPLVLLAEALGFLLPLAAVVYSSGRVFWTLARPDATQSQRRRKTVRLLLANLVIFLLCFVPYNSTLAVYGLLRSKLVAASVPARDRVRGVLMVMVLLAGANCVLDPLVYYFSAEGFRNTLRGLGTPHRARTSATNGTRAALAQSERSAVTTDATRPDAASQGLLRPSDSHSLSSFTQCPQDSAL
Experimental: (§1) The assay was analyzed using a benchtop Compensated Interferometric Reader (CIR) that measured the light refractive index (ΔRI) change from binding-induced conformational and/or hydration changes produced by real time binding events in a sample (receptor containing nanovesicles plus compound) and compared to a nonbinding reference (RI matched buffer plus compound).[30] Finally, the interferometric signal from vector nanovesicles binding (nonspecific) to compound was subtracted from the LPA2,4–6 containing nanovesicles binding (total) to compound, to determine the specific binding interactions of the compounds to LPA2,4–6. The concentration-dependent change in RI (ΔRI) signal from the compounds to LPA2,4–6 or vector was fitted using the single site total vs nonspecific binding isotherm using GraphPad Prism. Specific KD values were determined by fitting the total minus nonspecific signal to a single site binding isotherm.
(§2) The detailed free solution assay method was described previously.[25],[26] All the compounds were dissolved in 100% DMSO, aliquoted, and frozen at −80 °C for 1 week. The compound dilution series was freshly prepared in 0.5% DMSO/PBS (pH 7.4) to keep the maximum compound in solution. […]

LPA4 = LPA4 (Homo sapiens, UniProt Q99677); settings: in abstract
Chain of LPA4 (Q99677 whole entry, species assumed): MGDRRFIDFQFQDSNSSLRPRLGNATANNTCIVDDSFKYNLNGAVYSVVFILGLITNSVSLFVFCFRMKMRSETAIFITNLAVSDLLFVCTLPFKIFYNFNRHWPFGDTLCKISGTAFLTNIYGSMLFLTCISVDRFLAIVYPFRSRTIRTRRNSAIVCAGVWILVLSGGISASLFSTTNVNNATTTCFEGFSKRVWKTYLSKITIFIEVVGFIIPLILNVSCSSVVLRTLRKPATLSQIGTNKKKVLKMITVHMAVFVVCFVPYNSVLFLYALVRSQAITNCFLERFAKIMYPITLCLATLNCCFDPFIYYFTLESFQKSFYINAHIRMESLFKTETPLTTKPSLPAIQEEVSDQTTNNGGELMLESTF
Experimental: as §1, §2

[2] = Metabolic stability in human liver microsomes; assay type: in vitro ADME; settings: male, liver microsomes (pooled), 1 mg/mL protein, NADPH, 37 °C, read-out: stability (t1/2, min) HLMs
Experimental: Reactions were initiated by the addition of a suspension of mouse liver microsomes (MLMs) (male CD-1 mice pooled, Sigma-Aldrich) or human liver microsomes (HLMs) (male human pooled, Sigma-Aldrich), respectively, at a final protein concentration of 1 mg/mL. […] Aliquots of 100 μL were quenched at time zero and at seven points ranging to 2 h (MLM) or 4 h (HLM) by pouring into 100 μL of ice-cold acetonitrile. […] The relative disappearance of the compound under study over the course of the incubation was monitored by HPLC-MS using SIM mode. Concentrations were quantified by measuring the area under the peak ([M + H]^+) normalized with an internal standard and converted to the percentage of compound remaining, using the time zero peak area value as 100%. The natural logarithm of the remaining percentage versus time data for each compound was fit to a linear regression, and the slope was used to calculate the degradation half-life (t1/2).

[3] = test system: spinal cord injury in LPA2 null mice; test: Spinal cord contusion injury model in LPA2 null mice (Basso Mouse Scale); assay type: in vivo; settings: 25 mg/kg i.p. daily for 10 days
Experimental: Effect of i.p. injection of 54 (25 mg/kg) or vehicle on locomotor recovery in (A) C57bl/6 mice and (B) LPA2 deficient mice quantified using the 0 (absence of movement) to 9 (completely normal locomotor behavior) Basso Mouse Scale (BMS). Data are expressed as mean ± s.e.m. and correspond to seven animals per group in A and five animals per group in B. * p < 0.05 compared with vehicle-treated group (two-way repeated measures ANOVA with Bonferroni’s post hoc test for multiple comparisons).
All Surgical Procedures Were Approved by the Universitat Autònoma De Barcelona Animal Care Committee (CEEAH 4273) and followed the guidelines of the European Commission on Animal Care (EU Directive 2010/63/EU). Adult female C57Bl/6J mice (10–12 weeks old) and LPA2 null mice were anesthetized by intramuscular injection with a mixture of ketamine and xylazine (90:10 mg/kg). A laminectomy was performed at the 11th thoracic vertebrae and the exposed spinal cord was contused using the Infinite Horizon Impactor device (Precision Scientific Instrumentation) using a force of 60 kdynes. Only mice showing a spinal cord tissue displacement ranging between 450 and 550 μm were selected.

LPA2 K278A mutant = target: T1, LPA2 K278A mutant (Homo sapiens, UniProt Q9HBW0, K275A); test: Ca2+ mobilization in McA-RH7777 cells transfected with LPA2 point mutant K278A; assay type: cell-based
T1 construct: host or cells: McA-RH7777 (CRL-1601, ATCC), transient, pcDNA3.1
T1 sequence (Q9HBW0 whole entry K275A): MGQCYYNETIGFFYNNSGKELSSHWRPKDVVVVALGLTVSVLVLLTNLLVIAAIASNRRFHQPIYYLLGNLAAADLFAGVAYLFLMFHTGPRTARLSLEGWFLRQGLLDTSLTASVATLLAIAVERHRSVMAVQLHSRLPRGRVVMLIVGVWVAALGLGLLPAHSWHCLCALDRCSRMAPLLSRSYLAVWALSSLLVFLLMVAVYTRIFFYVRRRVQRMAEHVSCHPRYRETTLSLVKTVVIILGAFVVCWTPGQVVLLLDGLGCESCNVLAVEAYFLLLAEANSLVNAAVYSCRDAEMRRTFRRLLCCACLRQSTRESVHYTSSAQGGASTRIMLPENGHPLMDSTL

LPA2 mutant R107A = target: T2, LPA2 mutant R107A (Homo sapiens, UniProt Q9HBW0, R104A); test: Ca2+ mobilization in McA-RH7777 cells transfected with LPA2 point mutant R107A; assay type: cell-based; settings: 54 at 10 μM, 10 μM LPA
T2 construct: host or cells: McA-RH7777 (CRL-1601, ATCC), transient, pcDNA3.1
T2 sequence (Q9HBW0 whole entry R104A): as the sequence (Q9HBW0 whole entry K275A) above, with R104A, A275K counted along it

With `Cc1[nH]nc(-c2ccc(OCc3nnn[nH]3)cc2O)c1Oc1ccc(Cl)cc1Cl` [Compound 54] the Papp at 5 h, 200 μM [1] was 6.1 ×10⁻⁶ cm/s, the “activity at LPA5 receptor” value (LPA5) was “inactive” and the “activity at LPA4 receptor” value (LPA4) was “inactive”. The half-life at 5 μM [2] was 97 ± 15 min, the “locomotor recovery after SCI (BMS)” value [3] was “did not induce any significant effect; also recorded: inactive” and the “functional activity at LPA2 K278A mutant” value (LPA2 K278A mutant; 10 μM) was “behaved as an agonist”. The “activation of LPA2 K278A mutant” value (LPA2 K278A mutant; at 10 μM, stimulation by 10 μM LPA normalized to 100%) was 75 ± 5% and the “agonist/antagonist activity at LPA2 R107A mutant” value (LPA2 mutant R107A) was “no significant agonist nor antagonist activity”.
